Measured values published in ChEMBL document CHEMBL1909046, “DrugMatrix in vitro pharmacology data”.

Columns and labels:
[1] = target: T1, Cysteinyl leukotriene receptor 1 (Homo sapiens, UniProt Q9Y271); type: cell membranes, Membrane; conditions: cho-k1; also: in other assays of this panel Not Active means under 50% inhibition at 10 µM
T1 sequence (Q9Y271 whole entry): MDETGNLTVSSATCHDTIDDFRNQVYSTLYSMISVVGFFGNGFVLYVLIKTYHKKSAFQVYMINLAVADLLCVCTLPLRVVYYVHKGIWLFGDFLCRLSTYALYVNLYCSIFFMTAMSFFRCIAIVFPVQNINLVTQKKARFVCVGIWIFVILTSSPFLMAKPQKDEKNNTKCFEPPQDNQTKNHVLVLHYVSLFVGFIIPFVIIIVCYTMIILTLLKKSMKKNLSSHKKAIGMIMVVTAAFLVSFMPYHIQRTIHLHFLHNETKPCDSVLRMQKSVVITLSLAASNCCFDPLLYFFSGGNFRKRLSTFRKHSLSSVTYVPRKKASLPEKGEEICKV

D(4) dopamine receptor = target: T2, D(4) dopamine receptor (Homo sapiens, UniProt P21917); test: DRUGMATRIX: Dopamine D4.2 radioligand binding (ligand: [3H] Spiperone); type: cell membranes, CHO-K1, Membrane; conditions: Not Active = under 50% inhibition at 10 µM
T2 sequence (P21917 whole entry): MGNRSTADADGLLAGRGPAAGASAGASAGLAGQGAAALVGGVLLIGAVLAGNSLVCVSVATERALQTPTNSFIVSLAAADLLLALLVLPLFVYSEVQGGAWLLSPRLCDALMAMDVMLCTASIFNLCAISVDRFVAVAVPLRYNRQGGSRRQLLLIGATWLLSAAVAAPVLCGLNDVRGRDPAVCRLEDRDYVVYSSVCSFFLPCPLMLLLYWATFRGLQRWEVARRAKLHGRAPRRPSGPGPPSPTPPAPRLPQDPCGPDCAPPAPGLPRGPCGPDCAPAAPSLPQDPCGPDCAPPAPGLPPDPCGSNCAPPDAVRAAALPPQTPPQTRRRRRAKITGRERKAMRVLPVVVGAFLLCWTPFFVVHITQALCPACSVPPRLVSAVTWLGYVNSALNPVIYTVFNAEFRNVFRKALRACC

Leukotriene C4 synthase = target: T3, Leukotriene C4 synthase (Cavia porcellus, UniProt A6XA80); type: tissue-based, Lung;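 also: enzyme inhibition assay of leukotriene C4 synthase, using LTA4 as the substrate; in other assays of this panel Not Active means under 50% inhibition at 10 µM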
T3 sequence (A6XA80 whole entry): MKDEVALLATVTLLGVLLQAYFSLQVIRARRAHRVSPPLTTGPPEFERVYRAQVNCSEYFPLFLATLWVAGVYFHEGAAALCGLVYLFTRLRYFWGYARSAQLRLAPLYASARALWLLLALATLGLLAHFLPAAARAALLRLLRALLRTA

[2] = DRUGMATRIX: GABAA, Flunitrazepam, Central radioligand binding (ligand: [3H] Flunitrazepam); type: cell membranes, Rattus norvegicus, Wistar, Brain, Membrane; conditions: Not Active = under 50% inhibition at 10 µM
[3] = target: T4, Type-2 angiotensin II receptor (Homo sapiens, UniProt P50052); type: cell-based; conditions: cho-k1; also: in other assays of this panel Not Active means under 50% inhibition at 10 µM
T4 sequence (P50052 whole entry): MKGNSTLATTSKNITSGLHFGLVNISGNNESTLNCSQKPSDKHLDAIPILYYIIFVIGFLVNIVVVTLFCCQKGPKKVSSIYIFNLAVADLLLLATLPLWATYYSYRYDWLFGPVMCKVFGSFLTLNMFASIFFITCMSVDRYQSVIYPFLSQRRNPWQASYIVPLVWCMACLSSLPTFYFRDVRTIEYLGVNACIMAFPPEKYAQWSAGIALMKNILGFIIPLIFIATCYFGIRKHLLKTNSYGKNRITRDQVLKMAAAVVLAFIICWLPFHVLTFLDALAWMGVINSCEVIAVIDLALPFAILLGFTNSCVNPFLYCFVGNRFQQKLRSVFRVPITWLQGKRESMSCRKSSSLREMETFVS

[4] = target: T5, Amine oxidase [flavin-containing] A (Homo sapiens, UniProt P21397); test: DRUGMATRIX: Monoamine Oxidase MAO-A enzyme inhibition (substrate: Kynuramine); parameters: species or system BTI-TN-5B1-4; conditions: bti-tn-5b1-4; Not Active = under 50% inhibition at 10 µM
T5 sequence (P21397 whole entry): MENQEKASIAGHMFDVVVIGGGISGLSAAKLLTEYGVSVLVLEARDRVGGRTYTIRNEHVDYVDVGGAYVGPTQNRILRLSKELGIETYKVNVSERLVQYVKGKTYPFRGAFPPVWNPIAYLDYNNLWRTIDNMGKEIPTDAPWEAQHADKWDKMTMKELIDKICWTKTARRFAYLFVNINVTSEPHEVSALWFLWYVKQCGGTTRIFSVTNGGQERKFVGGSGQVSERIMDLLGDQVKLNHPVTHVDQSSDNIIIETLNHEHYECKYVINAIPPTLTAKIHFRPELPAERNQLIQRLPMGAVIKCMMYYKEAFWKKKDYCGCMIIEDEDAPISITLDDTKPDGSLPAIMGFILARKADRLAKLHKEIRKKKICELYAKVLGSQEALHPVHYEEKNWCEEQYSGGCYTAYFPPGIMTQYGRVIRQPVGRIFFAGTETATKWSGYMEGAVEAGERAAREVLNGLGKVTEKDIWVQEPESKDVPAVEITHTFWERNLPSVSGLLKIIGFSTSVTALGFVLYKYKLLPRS

| Compound | IC50 [1] | IC50 (D(4) dopamine receptor; cho-k1) | IC50 (Leukotriene C4 synthase) | IC50 [2] | Ki [2] | IC50 [3] | IC50 [4] | IC50 (D(4) dopamine receptor; read-out: IC50) [nM] | Ki (D(4) dopamine receptor; read-out: Ki) [nM] | IC50 ([2]; read-out: IC50) [nM] | Ki ([2]; read-out: Ki) [nM] |
| --- | --- | --- | --- | --- | --- | --- | --- | --- | --- | --- | --- |
| Cc1c(C)c2c(c(C)c1O)CCC(C)(CN1CCN(c3cc(N4CCCC4)nc(N4CCCC4)n3)CC1)O2 (centres undefined) | Not Active | Not Active | Not Active | Not Active | Not Active | Not Active | Not Active | – | – | – | – |
| COc1ccc(CCN(C)CCCC(C#N)(c2ccc(OC)c(OC)c2)C(C)C)cc1OC (centres undefined) | Not Active | Not Active | Not Active | Not Active | Not Active | Not Active | Not Active | – | – | – | – |
| CC(C)Cc1ccc([C@@H](C)C(=O)O)cc1 [(R)-IBUPROPHEN] | Not Active | Not Active | Not Active | Not Active | Not Active | Not Active | Not Active | – | – | – | – |
| CN(C)CCOC(c1ccccc1)c1ccccc1 [DIPHENHYDRAMINE] | Not Active | Not Active | Not Active | – | – | Not Active | Not Active | – | – | – | – |
| Clc1ccc(COC(Cn2ccnc2)c2ccc(Cl)cc2Cl)cc1 (centres undefined) [ECONAZOLE] | Not Active | – | Not Active | – | – | Not Active | Not Active | 9330 | 3270 | – | – |
| CCN(CC)CCOc1ccc(/C(=C(/Cl)c2ccccc2)c2ccccc2)cc1 [ENCLOMIPHENE] | Not Active | Not Active | Not Active | – | – | Not Active | Not Active | – | – | – | – |
| Fc1ccc(C(c2ccc(F)cc2)N2CCN(C/C=C/c3ccccc3)CC2)cc1 [FLUNARIZINE] | Not Active | Not Active | Not Active | – | – | Not Active | Not Active | – | – | – | – |
| CNCCC(Oc1ccc(C(F)(F)F)cc1)c1ccccc1 (centres undefined) [FLUOXETINE] | Not Active | Not Active | Not Active | – | – | Not Active | Not Active | – | – | – | – |
| Cc1ccc(NC(=O)c2ccc(CN3CCN(C)CC3)cc2)cc1Nc1nccc(-c2cccnc2)n1 [IMATINIB] | Not Active | Not Active | Not Active | – | – | Not Active | Not Active | – | – | – | – |
| CC(C)Oc1ccc2c(=O)c(-c3ccccc3)coc2c1 [IPRIFLAVONE] | Not Active | Not Active | Not Active | Not Active | Not Active | Not Active | Not Active | – | – | – | – |
| CC(C)NCC(O)c1ccc(O)c(O)c1 (centres undefined) [ISOPROTERENOL] | Not Active | Not Active | Not Active | Not Active | Not Active | Not Active | Not Active | – | – | – | – |
| CNC1(c2ccccc2Cl)CCCCC1=O (centres undefined) [KETAMINE] | Not Active | Not Active | Not Active | Not Active | Not Active | Not Active | Not Active | – | – | – | – |
| N#Cc1ccc(C(c2ccc(C#N)cc2)n2cncn2)cc1 [LETROZOLE] | Not Active | Not Active | Not Active | Not Active | Not Active | Not Active | Not Active | – | – | – | – |
| CCN1CCC[C@H]1CNC(=O)c1cc(S(N)(=O)=O)ccc1OC [LEVOSULPIRIDE] | Not Active | Not Active | Not Active | Not Active | Not Active | Not Active | Not Active | – | – | – | – |
| CCN(CC)CC(=O)Nc1c(C)cccc1C [LIDOCAINE] | Not Active | Not Active | Not Active | Not Active | Not Active | Not Active | Not Active | – | – | – | – |
| O=C1Nc2ccc(Cl)cc2C(c2ccccc2Cl)=NC1O (centres undefined) [LORAZEPAM] | Not Active | Not Active | Not Active | – | – | Not Active | Not Active | – | – | 6.35 | 5.18 |
| CO[C@@H]1[C@@H](OC)[C@H](C)[C@@](O)(CC(=O)O)O[C@H]1[C@H](C)[C@H]1O[C@@]2(CC[C@@](C)([C@H]3CC[C@@](C)([C@@H]4O[C@@H]([C@H]5O[C@](C)(O)[C@H](C)C[C@@H]5C)C[C@@H]4O[C@@H]4C[C@H](OC)[C@@H](OC)[C@H](C)O4)O3)O2)C[C@H](O)[C@H]1C [MADURAMICIN ACID] | Not Active | Not Active | Not Active | Not Active | Not Active | Not Active | Not Active | – | – | – | – |
| COc1c2occc2cc2ccc(=O)oc12 [METHOXSALEN] | Not Active | Not Active | Not Active | Not Active | Not Active | Not Active | Not Active | – | – | – | – |
| C[C@H]1C[C@@H]2[C@H]([C@@H](O)C[C@@]3(C)[C@H]2CC[C@]3(O)C(=O)CO)[C@@]2(C)C=CC(=O)C=C12 [METHYLPREDNISOLONE] | Not Active | Not Active | Not Active | Not Active | Not Active | Not Active | Not Active | – | – | – | – |
| Cc1cccc(C)c1OCC(C)N (centres undefined) [MEXILETINE] | Not Active | Not Active | Not Active | Not Active | Not Active | Not Active | Not Active | – | – | – | – |
| Nc1cc(N2CCCCC2)nc(N)[n+]1[O-] [MINOXIDIL] | Not Active | Not Active | Not Active | Not Active | Not Active | Not Active | Not Active | – | – | – | – |
| CO[C@H]1/C=C/O[C@@]2(C)Oc3c(C)c(O)c4c(O)c(c(/C=N/N5CCN(C6CCCC6)CC5)c(O)c4c3C2=O)NC(=O)/C(C)=C\C=C\[C@H](C)[C@H](O)[C@@H](C)[C@@H](O)[C@@H](C)[C@H](OC(C)=O)[C@@H]1C [RIFAPENTINE] | Not Active | Not Active | Not Active | Not Active | Not Active | Not Active | Not Active | – | – | – | – |
| CCCCOc1cc(CC2CNC(=O)N2)ccc1OC (centres undefined) [RO-201724] | Not Active | Not Active | Not Active | Not Active | Not Active | Not Active | Not Active | – | – | – | – |
| CC[C@@H](C(=O)[C@@H](C)[C@@H](O)[C@H](C)[C@@H]1O[C@@H]([C@@H](CC)C(=O)O)CC[C@@H]1C)[C@H]1O[C@]2(C=C[C@@H](O)[C@]3(CC[C@@](C)([C@H]4CC[C@](O)(CC)[C@H](C)O4)O3)O2)[C@H](C)C[C@@H]1C [SALINOMYCIN] | Not Active | Not Active | Not Active | Not Active | Not Active | Not Active | Not Active | – | – | – | – |
| O=C(Oc1ccccc1C(=O)O)c1ccccc1O [SALSALATE] | Not Active | Not Active | Not Active | Not Active | Not Active | Not Active | Not Active | – | – | – | – |
| CN[C@H]1CC[C@@H](c2ccc(Cl)c(Cl)c2)c2ccccc21 [SERTRALINE] | Not Active | Not Active | Not Active | – | – | Not Active | Not Active | – | – | – | – |
